Source: patent US5776944A, “7-(4-aminomethyl-3-methyloxyiminopyrroplidin-1-yl)-1-cyclopropyl-6-flu oro-4-oxo-1,4-dihydro-1,8-naphthyridine-3-carboxylic acid and the process for the preparation thereof” (LG Chemical Ltd., priority 1994, dated 1998)
Converted amounts (≈) assume the structure as drawn. Like-named read-outs stand apart in the source and are kept apart here.

Key:
Format in all cases: cell-based
[1] = system: Staphylococcus aureus 6538p; assay: In vitro antibacterial activity (MIC, agar dilution), Biological Example 1; conditions: 18 h, Table 25, read-out: Minimum Inhibitory Concentration
[2] = system: Staphylococcus aureus giorgio; assay: as above; conditions: 18 h, Table 25, read-out: Minimum Inhibitory Concentration
Staphylococcus aureus 77 = assay: as above; conditions: 18 h; Staphylococcus aureus 77, Table 25; read-out: Minimum Inhibitory Concentration
[3] = system: Staphylococcus aureus 241; assay: as above; conditions: 18 h; Staphylococcus aureus 241, Table 25; read-out: Minimum Inhibitory Concentration
[4] = system: Staphylococcus epidermidis 887E; assay: as above; conditions: 18 h, Table 25, read-out: Minimum Inhibitory Concentration
[5] = system: Staphylococcus epidermidis 178; assay: as above; conditions: 18 h; Staphylococcus epidermidis 178, Table 25; read-out: Minimum Inhibitory Concentration
[6] = system: Streptococcus faecalis 29212; assay: as above; conditions: Enterococcus faecalis, 18 h; Streptococcus faecalis 29212, Table 25; read-out: Minimum Inhibitory Concentration
Bacillus subtilis 6633 = assay: as above; conditions: 18 h; Bacillus subtilis 6633, Table 25; read-out: Minimum Inhibitory Concentration
Micrococcus luteus 9341 = assay: as above; conditions: 18 h; Micrococcus luteus 9341, Table 25; read-out: Minimum Inhibitory Concentration
Escherichia coli 10536 = assay: as above; conditions: 18 h; Escherichia coli 10536, Table 25; read-out: Minimum Inhibitory Concentration
Escherichia coli 3190Y = assay: as above; conditions: 18 h, Table 25, read-out: Minimum Inhibitory Concentration
Escherichia coli 851E = assay: as above; conditions: 18 h, Table 25, read-out: Minimum Inhibitory Concentration
[7] = system: Escherichia coli TEM3 3455E; assay: microbe, parasite or virus in culture; conditions: TEM33455E, 18 h, read-out: Minimum Inhibitory Concentration
[8] = system: Escherichia coli TEM5 3739E; assay: microbe, parasite or virus in culture; conditions: TEM53739E, 18 h, read-out: Minimum Inhibitory Concentration
[9] = system: Escherichia coli TEM9 2639E; assay: microbe, parasite or virus in culture; conditions: TEM92639E, 18 h, read-out: Minimum Inhibitory Concentration
[10] = system: Pseudomonas aeruginosa 1912E; assay: In vitro antibacterial activity (MIC, agar dilution), Biological Example 1; conditions: 18 h, read-out: Minimum Inhibitory Concentration
[11] = system: Pseudomonas aeruginosa 10145; assay: as above; conditions: 18 h; Pseudomonas aeruginosa 10145, Table 25; read-out: Minimum Inhibitory Concentration
[12] = system: Acinetobacter calcoaceticus 15473; assay: as above; conditions: 18 h; Acinetobacter calcoaceticus 15473, Table 25; read-out: Minimum Inhibitory Concentration
[13] = system: Citrobacter diversus 2046E; assay: as above; conditions: Citrobacter koseri, 18 h, Table 25, read-out: Minimum Inhibitory Concentration
[14] = system: Enterobacter cloacae 1194E; assay: microbe, parasite or virus in culture; conditions: 18 h, read-out: Minimum Inhibitory Concentration
Enterobacter cloacae P99 = assay: microbe, parasite or virus in culture; conditions: P99, 18 h, read-out: Minimum Inhibitory Concentration
[15] = system: Klebsiella aerogenes 1976E; assay: In vitro antibacterial activity (MIC, agar dilution), Biological Example 1; conditions: 18 h, Table 25, read-out: Minimum Inhibitory Concentration
[16] = system: Klebsiella aerogenes 1082E; assay: as above; conditions: 18 h, Table 25, read-out: Minimum Inhibitory Concentration
[17] = system: Salmonella typimurium 14028; assay: as above; conditions: 18 h; Salmonella typimurium 14028, Table 25; read-out: Minimum Inhibitory Concentration
[18] = Pseudomonas aeruginosa 1912E, Table 25

Row | SMILES | MIC [1] [µg/mL] | MIC [2] [µg/mL] | MIC (Staphylococcus aureus 77) [µg/mL] | MIC [3] [µg/mL] | MIC [4] [µg/mL] | MIC [5] [µg/mL] | MIC [6] [µg/mL] | MIC (Bacillus subtilis 6633) [µg/mL] | MIC (Micrococcus luteus 9341) [µg/mL] | MIC (Escherichia coli 10536) [µg/mL] | MIC (Escherichia coli 3190Y) [µg/mL] | MIC (Escherichia coli 851E) [µg/mL] | MIC [7] [µg/mL] | MIC [8] [µg/mL] | MIC [9] [µg/mL] | MIC [11] [µg/mL] | MIC [12] [µg/mL] | MIC [13] [µg/mL] | MIC [14] [µg/mL] | MIC (Enterobacter cloacae P99) [µg/mL] | also measured
1 | NCC1CN(c2cc3c(cc2F)c(=O)c(C(=O)O)cn3C2CC2)CC1=NOCc1ccccc1 (stereo not drawn) [Example 12, 7-(4-animomethyl-3-benzyloxyimino-pyrrolidin-1-yl)-1-cyclcopropyl-6-fluoro-1,4-dihydro-4-oxoquinoline-3-carboxylic acid] | ≤ 0.008 | ≤ 0.008 | ≤ 0.008 | 1 (≈ 2.15 µM) | ≤ 0.008 | 0.5 (≈ 1.08 µM) | 0.031 (≈ 0.0667 µM) | ≤ 0.008 | 0.13 (≈ 0.28 µM) | ≤ 0.008 | 0.016 (≈ 0.0344 µM) | 0.063 (≈ 0.136 µM) | 0.5 (≈ 1.08 µM) | 0.25 (≈ 0.538 µM) | 0.25 (≈ 0.538 µM) | 0.5 (≈ 1.08 µM) | 0.016 (≈ 0.0344 µM) | 0.13 (≈ 0.28 µM) | 0.13 (≈ 0.28 µM) | 0.063 (≈ 0.136 µM) | MIC [10, 18]: 2 µg/mL (≈ 4.31 µM); MIC [15]: 1 µg/mL (≈ 2.15 µM); MIC [16]: 0.13 µg/mL (≈ 0.28 µM); MIC [17]: 0.25 µg/mL (≈ 0.538 µM)
2 | NCC1CN(c2c(F)c(N)c3c(=O)c(C(=O)O)cn(C4CC4)c3c2F)CC1=NOCc1ccccc1 (stereo not drawn) [Example 56, 5-amino-7-(4-aminomethyl-3-benzyloxylmino-pyrrolidin-1-yl)-1-cyclopropyl6,8-difluoro-1,4-dihydro-4-oxoquinoline-3-carboxylic acid] | ≤ 0.008 | ≤ 0.008 | ≤ 0.008 | 2 (≈ 4.02 µM) | ≤ 0.008 | 2 (≈ 4.02 µM) | 0.016 (≈ 0.0322 µM) | ≤ 0.008 | 0.063 (≈ 0.127 µM) | ≤ 0.008 | ≤ 0.008 | ≤ 0.008 | 0.5 (≈ 1.01 µM) | 0.25 (≈ 0.503 µM) | 0.063 (≈ 0.127 µM) | 2 (≈ 4.02 µM) | ≤ 0.008 | 0.016 (≈ 0.0322 µM) | 0.031 (≈ 0.0623 µM) | ≤ 0.008 | MIC [10, 18]: 2 µg/mL (≈ 4.02 µM); MIC [15]: 0.5 µg/mL (≈ 1.01 µM); MIC [16]: 0.016 µg/mL (≈ 0.0322 µM); MIC [17]: 0.031 µg/mL (≈ 0.0623 µM)
3 | CC(C)CON=C1CN(c2nc3c(cc2F)c(=O)c(C(=O)O)cn3C2CC2)CC1CN (stereo not drawn) [Example 102] | 0.016 (≈ 0.0371 µM) | ≤ 0.008 | 0.016 (≈ 0.0371 µM) | 4 (≈ 9.27 µM) | ≤ 0.008 | 1 (≈ 2.32 µM) | 0.063 (≈ 0.146 µM) | ≤ 0.008 | 0.063 (≈ 0.146 µM) | ≤ 0.008 | ≤ 0.008 | 0.063 (≈ 0.146 µM) | 0.5 (≈ 1.16 µM) | 0.25 (≈ 0.579 µM) | 0.063 (≈ 0.146 µM) | 2 (≈ 4.64 µM) | 0.063 (≈ 0.146 µM) | 0.13 (≈ 0.301 µM) | 0.25 (≈ 0.579 µM) | 0.031 (≈ 0.0718 µM) | MIC [10, 18]: 2 µg/mL (≈ 4.64 µM); MIC [15]: 0.5 µg/mL (≈ 1.16 µM); MIC [16]: 0.25 µg/mL (≈ 0.579 µM); MIC [17]: 0.25 µg/mL (≈ 0.579 µM)
4 | CC(C)ON=C1CN(c2nc3c(cc2F)c(=O)c(C(=O)O)cn3C2CC2)CC1CN (stereo not drawn) [Example 97] | ≤ 0.008 | ≤ 0.008 | 0.016 (≈ 0.0383 µM) | 2 (≈ 4.79 µM) | ≤ 0.008 | 1 (≈ 2.4 µM) | 0.063 (≈ 0.151 µM) | ≤ 0.008 | 0.063 (≈ 0.151 µM) | ≤ 0.008 | ≤ 0.008 | 0.031 (≈ 0.0743 µM) | 0.13 (≈ 0.311 µM) | 0.063 (≈ 0.151 µM) | 0.031 (≈ 0.0743 µM) | 1 (≈ 2.4 µM) | 0.016 (≈ 0.0383 µM) | 0.063 (≈ 0.151 µM) | 0.063 (≈ 0.151 µM) | ≤ 0.008 | MIC [10, 18]: 1 µg/mL (≈ 2.4 µM); MIC [15]: 0.25 µg/mL (≈ 0.599 µM); MIC [16]: 0.13 µg/mL (≈ 0.311 µM); MIC [17]: 0.13 µg/mL (≈ 0.311 µM)
5 | CC1COc2c(N3CCN(C)CC3)c(F)cc3c(=O)c(C(=O)O)cn1c23 (stereo not drawn) [OFLX, ofloxacin, reference compound] | 0.25 (≈ 0.692 µM) | 0.25 (≈ 0.692 µM) | 0.25 (≈ 0.692 µM) | 64 (≈ 177 µM) | 0.25 (≈ 0.692 µM) | 32 (≈ 88.6 µM) | 2 (≈ 5.53 µM) | 0.063 (≈ 0.174 µM) | 2 (≈ 5.53 µM) | 0.031 (≈ 0.0858 µM) | 0.016 (≈ 0.0443 µM) | 0.063 (≈ 0.174 µM) | 0.5 (≈ 1.38 µM) | 0.5 (≈ 1.38 µM) | 0.063 (≈ 0.174 µM) | 2 (≈ 5.53 µM) | 0.25 (≈ 0.692 µM) | 0.063 (≈ 0.174 µM) | 0.063 (≈ 0.174 µM) | ≤ 0.008 | MIC ([10]; Pseudomonas aeruginosa, 1912E): 0.5 µg/mL (≈ 1.38 µM); MIC [15]: 0.25 µg/mL (≈ 0.692 µM); MIC [16]: 0.063 µg/mL (≈ 0.174 µM); MIC [17]: 0.13 µg/mL (≈ 0.36 µM)
